Reference: ChEMBL document CHEMBL3431459, “Roche carnitine palmitoyltransferase modulator screening data (supplementary data associated with the publication CHEMBL2216752)”
pIC50: −log10 of the molar value. In brackets after ≈: the same amount, converted by molar mass.

Assays:
[1] = SUPPLEMENTARY: Lipophilicity (log D) Determination by high-throughput shake-flask; type: physicochemical; conditions: octanol/water
[2] = molecular target: T1, Carnitine O-palmitoyltransferase 1, liver isoform (Homo sapiens, UniProt P50416); experiment: (§1) SUPPLEMENTARY: Inhibition of Carnitine palmitoyltransferase 1, liver isoform
T1 sequence (P50416 whole entry): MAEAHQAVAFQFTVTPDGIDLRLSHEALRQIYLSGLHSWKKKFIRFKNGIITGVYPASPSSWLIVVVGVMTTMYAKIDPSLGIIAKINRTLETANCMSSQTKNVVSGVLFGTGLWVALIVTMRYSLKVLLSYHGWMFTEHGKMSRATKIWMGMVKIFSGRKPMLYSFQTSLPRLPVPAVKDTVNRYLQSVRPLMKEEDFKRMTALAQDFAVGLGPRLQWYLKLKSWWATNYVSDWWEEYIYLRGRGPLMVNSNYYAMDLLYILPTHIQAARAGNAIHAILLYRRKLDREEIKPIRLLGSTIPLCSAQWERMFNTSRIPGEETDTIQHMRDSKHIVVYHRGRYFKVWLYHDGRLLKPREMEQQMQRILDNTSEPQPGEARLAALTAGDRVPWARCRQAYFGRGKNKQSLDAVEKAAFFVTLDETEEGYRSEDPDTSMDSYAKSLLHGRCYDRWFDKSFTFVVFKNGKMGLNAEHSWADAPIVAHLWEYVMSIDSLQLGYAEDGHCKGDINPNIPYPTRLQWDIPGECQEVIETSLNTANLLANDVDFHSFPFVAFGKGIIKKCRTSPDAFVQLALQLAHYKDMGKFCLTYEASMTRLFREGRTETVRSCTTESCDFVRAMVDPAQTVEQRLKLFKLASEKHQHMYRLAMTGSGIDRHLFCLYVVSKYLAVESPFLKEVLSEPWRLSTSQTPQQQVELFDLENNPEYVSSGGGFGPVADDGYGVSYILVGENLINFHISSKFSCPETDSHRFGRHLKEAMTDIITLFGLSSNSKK

[3] = molecular target: T2, Carnitine O-palmitoyltransferase 1, liver isoform (Rattus norvegicus, UniProt P32198); experiment: as §1
T2 sequence (P32198 whole entry): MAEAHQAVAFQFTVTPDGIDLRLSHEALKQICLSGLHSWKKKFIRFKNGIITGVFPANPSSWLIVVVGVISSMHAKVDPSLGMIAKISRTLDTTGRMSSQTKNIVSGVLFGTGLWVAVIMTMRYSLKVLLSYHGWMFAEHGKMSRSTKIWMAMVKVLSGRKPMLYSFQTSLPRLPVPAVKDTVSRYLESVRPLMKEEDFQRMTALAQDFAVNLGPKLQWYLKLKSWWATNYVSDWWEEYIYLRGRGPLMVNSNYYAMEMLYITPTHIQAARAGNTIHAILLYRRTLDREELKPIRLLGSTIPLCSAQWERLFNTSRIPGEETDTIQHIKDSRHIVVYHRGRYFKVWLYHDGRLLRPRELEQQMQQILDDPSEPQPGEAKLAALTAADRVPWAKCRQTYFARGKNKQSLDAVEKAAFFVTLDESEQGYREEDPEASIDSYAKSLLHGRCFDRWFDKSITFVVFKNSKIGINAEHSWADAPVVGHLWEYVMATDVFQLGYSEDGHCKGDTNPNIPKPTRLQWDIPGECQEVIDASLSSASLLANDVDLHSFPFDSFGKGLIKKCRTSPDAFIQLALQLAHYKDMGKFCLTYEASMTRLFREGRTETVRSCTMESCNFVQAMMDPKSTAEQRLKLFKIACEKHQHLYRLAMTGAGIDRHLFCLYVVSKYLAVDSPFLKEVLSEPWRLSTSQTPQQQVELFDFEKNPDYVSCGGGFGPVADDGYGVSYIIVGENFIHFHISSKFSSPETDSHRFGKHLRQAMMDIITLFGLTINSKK

[4] = SUPPLEMENTARY: Lyophilisation Solubility Assay (LYSA); type: physicochemical; conditions: read-out: Kinetic_solubility
[5] = molecular target: T3, Carnitine O-palmitoyltransferase 2, mitochondrial (Rattus norvegicus, UniProt P18886); experiment: (§2) SUPPLEMENTARY: Inhibition of Carnitine palmitoyltransferase 2
T3 sequence (P18886 whole entry): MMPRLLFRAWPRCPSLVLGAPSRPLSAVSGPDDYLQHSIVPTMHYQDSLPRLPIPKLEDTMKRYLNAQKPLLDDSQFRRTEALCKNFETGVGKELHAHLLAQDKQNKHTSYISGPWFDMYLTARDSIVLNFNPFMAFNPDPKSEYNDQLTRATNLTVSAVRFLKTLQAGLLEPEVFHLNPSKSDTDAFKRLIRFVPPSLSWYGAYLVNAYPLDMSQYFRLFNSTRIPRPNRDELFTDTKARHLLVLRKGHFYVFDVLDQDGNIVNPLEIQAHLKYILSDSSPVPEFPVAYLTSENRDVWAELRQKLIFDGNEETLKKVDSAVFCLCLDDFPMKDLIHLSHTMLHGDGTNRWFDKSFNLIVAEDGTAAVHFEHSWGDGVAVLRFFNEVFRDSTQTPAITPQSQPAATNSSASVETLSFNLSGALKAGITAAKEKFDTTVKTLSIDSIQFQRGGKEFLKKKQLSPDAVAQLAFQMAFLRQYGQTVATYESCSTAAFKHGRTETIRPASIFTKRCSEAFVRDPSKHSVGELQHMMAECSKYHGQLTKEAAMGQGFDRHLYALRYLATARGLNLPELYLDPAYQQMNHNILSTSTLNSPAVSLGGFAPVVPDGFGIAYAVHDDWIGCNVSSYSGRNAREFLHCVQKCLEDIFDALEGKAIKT

[6] = molecular target: T4, Carnitine O-palmitoyltransferase 2, mitochondrial (Homo sapiens, UniProt P23786); experiment: as §2
T4 sequence (P23786 whole entry): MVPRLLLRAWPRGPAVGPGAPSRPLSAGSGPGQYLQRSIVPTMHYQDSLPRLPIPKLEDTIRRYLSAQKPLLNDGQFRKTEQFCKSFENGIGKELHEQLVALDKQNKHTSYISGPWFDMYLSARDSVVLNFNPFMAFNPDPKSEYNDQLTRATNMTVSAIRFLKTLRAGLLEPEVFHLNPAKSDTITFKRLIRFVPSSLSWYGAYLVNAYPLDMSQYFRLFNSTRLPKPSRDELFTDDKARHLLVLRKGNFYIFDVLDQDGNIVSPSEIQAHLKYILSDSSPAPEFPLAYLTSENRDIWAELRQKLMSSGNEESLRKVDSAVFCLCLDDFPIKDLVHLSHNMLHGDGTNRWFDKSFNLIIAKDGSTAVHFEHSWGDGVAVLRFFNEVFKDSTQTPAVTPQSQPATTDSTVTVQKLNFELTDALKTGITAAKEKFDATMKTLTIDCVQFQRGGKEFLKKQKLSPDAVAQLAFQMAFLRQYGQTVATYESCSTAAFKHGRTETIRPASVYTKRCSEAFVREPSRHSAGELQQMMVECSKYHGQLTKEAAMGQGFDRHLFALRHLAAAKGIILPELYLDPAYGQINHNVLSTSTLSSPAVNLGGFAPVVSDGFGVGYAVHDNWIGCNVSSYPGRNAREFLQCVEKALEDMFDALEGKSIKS

[7] = SUPPLEMENTARY: PAMPA permeability assay; type: physicochemical; conditions: read-out: Permeability
[8] = molecular target: T5, Carnitine O-palmitoyltransferase 1, muscle isoform (Homo sapiens, UniProt Q92523); experiment: SUPPLEMENTARY: Inhibition of Carnitine palmitoyltransferase 1, muscle isoform; set-up: species or system Muscle tissue
T5 sequence (Q92523 whole entry): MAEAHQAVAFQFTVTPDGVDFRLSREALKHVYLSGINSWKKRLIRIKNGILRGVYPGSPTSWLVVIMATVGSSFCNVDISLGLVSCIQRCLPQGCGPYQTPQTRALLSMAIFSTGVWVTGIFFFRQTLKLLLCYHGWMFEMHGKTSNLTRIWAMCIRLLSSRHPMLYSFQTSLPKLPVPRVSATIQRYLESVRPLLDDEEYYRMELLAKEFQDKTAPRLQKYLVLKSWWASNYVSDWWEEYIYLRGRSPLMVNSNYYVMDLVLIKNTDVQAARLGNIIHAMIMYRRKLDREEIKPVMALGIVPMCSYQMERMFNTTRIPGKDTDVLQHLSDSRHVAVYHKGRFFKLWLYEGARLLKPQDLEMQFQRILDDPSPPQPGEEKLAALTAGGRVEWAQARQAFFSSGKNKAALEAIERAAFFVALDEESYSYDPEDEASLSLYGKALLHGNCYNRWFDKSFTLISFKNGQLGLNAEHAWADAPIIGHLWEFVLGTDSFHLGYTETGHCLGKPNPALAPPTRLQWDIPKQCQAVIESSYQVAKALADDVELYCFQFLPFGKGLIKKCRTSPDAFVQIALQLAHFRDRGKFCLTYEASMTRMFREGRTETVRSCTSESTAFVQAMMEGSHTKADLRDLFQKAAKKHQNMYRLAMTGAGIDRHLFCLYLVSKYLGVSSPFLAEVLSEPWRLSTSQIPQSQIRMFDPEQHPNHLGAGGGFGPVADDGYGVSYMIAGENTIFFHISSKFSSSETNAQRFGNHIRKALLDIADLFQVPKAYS

| SMILES | logD [1] | pIC50 [2] | pIC50 [3] | solubility kinetic [4] [µg/mL] | pIC50 [5] | pIC50 [6] | Papp [7] [×10⁻⁶ cm/s] | pIC50 [8] |
| --- | --- | --- | --- | --- | --- | --- | --- | --- |
| COc1ccc(C)cc1S(=O)(=O)N1CCCc2ccc(C(=O)Nc3ccc(C(=O)O)c(F)c3)cc21 | 0.88 | 6.82 | 7.04 | 60 (≈ 120 µM) | 5.09 | 5.35 | 1.62 | 5.29 |
| Cc1nn(C)c(-c2noc([C@H]3CCCCN3C(=O)COc3ccccc3)n2)c1Cl | 3.61 | 7.10 | 6.60 | < 1 | < 4.00 | < 4.00 | 1.68 | < 4.00 |
| COc1ccc(Cl)cc1S(=O)(=O)N1CCS(=O)(=O)c2ccc(C(=O)Nc3ccc(C(=O)O)c(F)c3)cc21 | -0.27 | 6.99 | 7.21 | 13 (≈ 22.8 µM) | 4.43 | 5.35 | 0.21 | 5.76 |
| CC(=O)Nc1cccc(C#C[C@H]2CCCCN2C(=O)COc2ccccc2)c1 | 3.49 | 6.97 | 6.72 | < 1 | < 4.00 | < 4.00 | 1.79 | < 4.00 |
| COc1ccc(Cl)cc1S(=O)(=O)N1CCCCc2ccc(C(=O)Nc3nc(CC(=O)O)cs3)cc21 | 0.54 | 7.33 | 7.77 | 216 (≈ 403 µM) | < 4.00 | < 4.00 | 3.46 | 6.22 |
| Nc1cncc(-c2nc([C@H]3CCCCN3C(=O)COc3ccccc3)no2)c1 | 2.39 | 6.84 | 6.03 | 19 (≈ 50.1 µM) | < 4.00 | 4.72 | 5.07 | < 4.00 |
| Cn1cnc(Br)c1-c1noc([C@H]2CCCCN2C(=O)COc2ccccc2)n1 | 2.68 | 7.10 | 6.60 | 83 (≈ 186 µM) | < 4.00 | 4.39 | 5.6 | < 4.00 |
| N#Cc1cccc(-c2n[nH]c([C@H]3CCCCN3C(=O)COc3ccccc3)n2)c1 | 2.98 | 6.79 | 6.66 | 31 (≈ 80 µM) | 4.47 | 4.53 | 2.96 | < 4.00 |
| O=C(COc1ccccc1)N1CCCC[C@@H]1c1nc(-c2cccc(N3CCCS3(=O)=O)c2)no1 | 2.82 | 7.22 | 7.22 | < 1 | < 4.00 | < 4.00 | 24.5 | < 4.00 |

Molecules with a higher pIC50 [2], results first:

| logD [1] | pIC50 [2] | pIC50 [3] | solubility kinetic [4] [µg/mL] | pIC50 [5] | pIC50 [6] | Papp [7] [×10⁻⁶ cm/s] | pIC50 [8] | SMILES |
| --- | --- | --- | --- | --- | --- | --- | --- | --- |
| 0.31 | 7.68 | 7.85 | 203 (≈ 405 µM) | < 4.00 | < 4.00 | 1.83 | 5.23 | COc1ccc(Cl)cc1S(=O)(=O)N1CC(C(=O)O)Cc2ccc(C(=O)Nc3ccccc3)cc21 (stereo not given) |
| 3.01 | 7.36 | 6.98 | 17 (≈ 40.4 µM) | < 4.00 | 4.14 | 2.55 | < 4.00 | CC(=O)Nc1cccc(-c2nc([C@H]3CCCCN3C(=O)COc3ccccc3)no2)c1 |
| 2.39 | 7.39 | 7.26 | 19 (≈ 40.4 µM) | < 4.00 | < 4.00 | 0.51 | 5.62 | COc1ccc(Cl)cc1Cc1cn(C)c2ccc(C(=O)Nc3nc(CC(=O)O)cs3)cc12 |
| 0.37 | 7.65 | 7.94 | 54 (≈ 109 µM) | < 4.00 | < 4.00 | 2.91 | 6.21 | O=C(O)Cc1csc(NC(=O)c2ccc3c(c2)N(S(=O)(=O)c2cccc(Cl)c2)CCO3)n1 |
| 0.34 | 7.39 | 7.59 | 260 (≈ 544 µM) | < 4.00 | < 4.00 | 2.91 | 6.22 | O=C(O)Cc1csc(NC(=O)c2ccc3c(c2)N(S(=O)(=O)c2cccc(Cl)c2)CC3)n1 |
| -0.45 | 7.46 | 7.59 | 446 (≈ 887 µM) | < 4.00 | < 4.00 | 0.03 | 4.56 | COc1ccc(Cl)cc1S(=O)(=O)N1CC(C(=O)O)Oc2ccc(C(=O)Nc3ccccc3)cc21 (stereo not given) |
